From ChEMBL document CHEMBL6078713, “Synthesis and mechanistic studies of 4-aminoquinoline-Isatin molecular hybrids and Schiff's bases as promising antimicrobial agents” (Eur J Med Chem, 2025)
In brackets after ≈: the same amount, converted by molar mass. Activity calls are given as the source filed them. The calls are words filed in the database; no cut-off is given here.

Key:
[1] = system: Escherichia coli; experiment: Antibacterial activity against Escherichia coli MTCC 443 assessed as diameter of zone of inhibition at 500 ug/ml by agar disk diffusion method; assay type: functional; details: read-out: DIZ
[2] = system: Enterococcus faecalis; experiment: Antibacterial activity against Enterococcus faecalis MTCC 439 assessed as diameter of zone of inhibition at 500 ug/ml by agar disk diffusion method; assay type: functional; details: read-out: DIZ
[3] = system: Bacillus subtilis; experiment: Antibacterial activity against Bacillus subtilis MTCC 736 assessed as diameter of zone of inhibition at 500 ug/ml by agar disk diffusion method; assay type: functional; details: read-out: DIZ
[4] = system: Staphylococcus aureus; experiment: Antibacterial activity against Staphylococcus aureus MTCC 902 assessed as diameter of zone of inhibition at 500 ug/ml by agar disk diffusion method; assay type: functional; details: read-out: DIZ
[5] = system: Pseudomonas aeruginosa; experiment: Antibacterial activity against Pseudomonas aeruginosa MTCC 2453 assessed as diameter of zone of inhibition at 500 ug/ml by agar disk diffusion method; assay type: functional; details: read-out: DIZ
[6] = system: Salmonella typhi; experiment: Antibacterial activity against Salmonella typhi assessed as diameter of zone of inhibition at 500 ug/ml by agar disk diffusion method; assay type: functional, Salmonella enterica subsp. enterica serovar Typhi; details: Salmonella enterica, read-out: DIZ
[7] = system: Escherichia coli; experiment: Antibacterial activity against Escherichia coli MTCC 443 assessed as inhibition of bacterial growth incubated overnight by serial dilution based spectrophotometer; assay type: functional
[8] = system: Enterococcus faecalis; experiment: Antibacterial activity against Enterococcus faecalis MTCC 439 assessed as inhibition of bacterial growth incubated overnight by serial dilution based spectrophotometer; assay type: functional
[9] = system: Bacillus subtilis; experiment: Antibacterial activity against Bacillus subtilis MTCC 736 assessed as inhibition of bacterial growth incubated overnight by serial dilution based spectrophotometer; assay type: functional
[10] = system: Staphylococcus aureus; experiment: Antibacterial activity against Staphylococcus aureus MTCC 902 assessed as inhibition of bacterial growth incubated overnight by serial dilution based spectrophotometer; assay type: functional
[11] = system: Pseudomonas aeruginosa; experiment: Antibacterial activity against Pseudomonas aeruginosa MTCC 2453 assessed as inhibition of bacterial growth incubated overnight by serial dilution based spectrophotometer; assay type: functional
[12] = system: Salmonella typhi; experiment: Antibacterial activity against Salmonella typhi assessed as inhibition of bacterial growth incubated overnight by serial dilution based spectrophotometer; assay type: functional, Salmonella enterica subsp. enterica serovar Typhi; details: Salmonella enterica
[13] = system: Escherichia coli; experiment: Bactericidal activity against Escherichia coli MTCC 443 assessed as inhibition of bacterial growth incubated overnight; assay type: functional
[14] = system: Enterococcus faecalis; experiment: Bactericidal activity against Enterococcus faecalis MTCC 439 assessed as inhibition of bacterial growth incubated overnight; assay type: functional
[15] = system: Bacillus subtilis; experiment: Bactericidal activity against Bacillus subtilis MTCC 736 assessed as inhibition of bacterial growth incubated overnight; assay type: functional
[16] = system: Staphylococcus aureus; experiment: Bactericidal activity against Staphylococcus aureus MTCC 902 assessed as inhibition of bacterial growth incubated overnight; assay type: functional
[17] = system: Pseudomonas aeruginosa; experiment: Bactericidal activity against Pseudomonas aeruginosa MTCC 2453 assessed as inhibition of bacterial growth incubated overnight; assay type: functional
[18] = system: Salmonella typhi; experiment: Bactericidal activity against Salmonella typhi assessed as inhibition of bacterial growth incubated overnight; assay type: functional, Salmonella enterica subsp. enterica serovar Typhi; details: Salmonella enterica
[19] = system: Escherichia coli; experiment: Ratio of MBC for antibacterial activity against Escherichia coli MTCC 443 to MIC for bactericidal activity against Escherichia coli MTCC 443; assay type: functional
[20] = system: Bacillus subtilis; experiment: Ratio of MBC for antibacterial activity against Bacillus subtilis MTCC 736 to MIC for bactericidal activity against Bacillus subtilis MTCC 736; assay type: functional
[21] = system: Pseudomonas aeruginosa; experiment: Ratio of MBC for antibacterial activity against Pseudomonas aeruginosa MTCC 2453 to MIC for bactericidal activity against Pseudomonas aeruginosa MTCC 2453; assay type: functional
[22] = system: Salmonella typhi; experiment: Ratio of MBC for antibacterial activity against Salmonella typhi to MIC for bactericidal activity against Salmonella typhi; assay type: functional, Salmonella enterica subsp. enterica serovar Typhi
[23] = system: Enterococcus faecalis; experiment: Antibacterial activity against Enterococcus faecalis MTCC 439 assessed as diameter of zone of inhibition at 0.5 times MIC incubated overnight by disk diffusion method; assay type: functional
[24] = system: Bacillus subtilis; experiment: Antibacterial activity against Bacillus subtilis MTCC 736 assessed as diameter of zone of inhibition at 0.5 times MIC incubated overnight by disk diffusion method; assay type: functional
[25] = system: Salmonella typhi; experiment: Antibacterial activity against Salmonella typhi assessed as diameter of zone of inhibition at 0.5 times MIC incubated overnight by disk diffusion method; assay type: functional, Salmonella enterica subsp. enterica serovar Typhi
[26] = system: Escherichia coli; experiment: Antibacterial activity against Escherichia coli MTCC 443 assessed as diameter of zone of inhibition at MIC incubated overnight by disk diffusion method; assay type: functional
[27] = system: Enterococcus faecalis; experiment: Antibacterial activity against Enterococcus faecalis MTCC 439 assessed as diameter of zone of inhibition at MIC incubated overnight by disk diffusion method; assay type: functional
[28] = system: Bacillus subtilis; experiment: Antibacterial activity against Bacillus subtilis MTCC 736 assessed as diameter of zone of inhibition at MIC incubated overnight by disk diffusion method; assay type: functional
[29] = system: Staphylococcus aureus; experiment: Antibacterial activity against Staphylococcus aureus MTCC 902 assessed as diameter of zone of inhibition at MIC incubated overnight by disk diffusion method; assay type: functional
[30] = system: Pseudomonas aeruginosa; experiment: Antibacterial activity against Pseudomonas aeruginosa MTCC 2453 assessed as diameter of zone of inhibition at MIC incubated overnight by disk diffusion method; assay type: functional
[31] = system: Salmonella typhi; experiment: Antibacterial activity against Salmonella typhi assessed as diameter of zone of inhibition at MIC incubated overnight by disk diffusion method; assay type: functional, Salmonella enterica subsp. enterica serovar Typhi
[32] = system: Escherichia coli; experiment: Antibacterial activity against Escherichia coli MTCC 443 assessed as diameter of zone of inhibition at 2 times MIC incubated overnight by disk diffusion method; assay type: functional
[33] = system: Enterococcus faecalis; experiment: Antibacterial activity against Enterococcus faecalis MTCC 439 assessed as diameter of zone of inhibition at 2 times MIC incubated overnight by disk diffusion method; assay type: functional
[34] = system: Bacillus subtilis; experiment: Antibacterial activity against Bacillus subtilis MTCC 736 assessed as diameter of zone of inhibition at 2 times MIC incubated overnight by disk diffusion method; assay type: functional
[35] = system: Staphylococcus aureus; experiment: Antibacterial activity against Staphylococcus aureus MTCC 902 assessed as diameter of zone of inhibition at 2 times MIC incubated overnight by disk diffusion method; assay type: functional
[36] = system: Pseudomonas aeruginosa; experiment: Antibacterial activity against Pseudomonas aeruginosa MTCC 2453 assessed as diameter of zone of inhibition at 2 times MIC incubated overnight by disk diffusion method; assay type: functional
[37] = system: Salmonella typhi; experiment: Antibacterial activity against Salmonella typhi assessed as diameter of zone of inhibition at 2 times MIC incubated overnight by disk diffusion method; assay type: functional, Salmonella enterica subsp. enterica serovar Typhi
[38] = system: Escherichia coli; experiment: Synergistic antibacterial activity against Escherichia coli MTCC 443 assessed as inhibition of bacterial growth incubated overnight in presence of ciprofloxacin by serial dilution based spectrophotometer; assay type: functional
[39] = system: Enterococcus faecalis; experiment: Synergistic antibacterial activity against Enterococcus faecalis MTCC 439 assessed as inhibition of bacterial growth incubated overnight in presence of ciprofloxacin by serial dilution based spectrophotometer; assay type: functional
[40] = system: Bacillus subtilis; experiment: Synergistic antibacterial activity against Bacillus subtilis MTCC 736 assessed as inhibition of bacterial growth incubated overnight in presence of ciprofloxacin by serial dilution based spectrophotometer; assay type: functional
[41] = system: Staphylococcus aureus; experiment: Synergistic antibacterial activity against Staphylococcus aureus MTCC 902 assessed as inhibition of bacterial growth incubated overnight in presence of ciprofloxacin by serial dilution based spectrophotometer; assay type: functional
[42] = system: Pseudomonas aeruginosa; experiment: Synergistic antibacterial activity against Pseudomonas aeruginosa MTCC 2453 assessed as inhibition of bacterial growth incubated overnight in presence of ciprofloxacin by serial dilution based spectrophotometer; assay type: functional
[43] = system: Salmonella typhi; experiment: Synergistic antibacterial activity against Salmonella typhi assessed as inhibition of bacterial growth incubated overnight in presence of ciprofloxacin by serial dilution based spectrophotometer; assay type: functional, Salmonella enterica subsp. enterica serovar Typhi; details: Salmonella enterica
[44] = system: Escherichia coli; experiment: Synergistic antibacterial activity against Escherichia coli MTCC 443 assessed as fractional inhibitory concentration index incubated overnight in presence of ciprofloxacin by microdilution checkerboard assay; assay type: functional
[45] = system: Enterococcus faecalis; experiment: Synergistic antibacterial activity against Enterococcus faecalis MTCC 439 assessed as fractional inhibitory concentration index incubated overnight in presence of ciprofloxacin by microdilution checkerboard assay; assay type: functional
[46] = system: Bacillus subtilis; experiment: Synergistic antibacterial activity against Bacillus subtilis MTCC 736 assessed as fractional inhibitory concentration index incubated overnight in presence of ciprofloxacin by microdilution checkerboard assay; assay type: functional
[47] = system: Staphylococcus aureus; experiment: Synergistic antibacterial activity against Staphylococcus aureus MTCC 902 assessed as fractional inhibitory concentration index incubated overnight in presence of ciprofloxacin by microdilution checkerboard assay; assay type: functional
[48] = system: Pseudomonas aeruginosa; experiment: Synergistic antibacterial activity against Pseudomonas aeruginosa MTCC 2453 assessed as fractional inhibitory concentration index incubated overnight in presence of ciprofloxacin by microdilution checkerboard assay; assay type: functional
[49] = system: Salmonella typhi; experiment: Synergistic antibacterial activity against Salmonella typhi assessed as fractional inhibitory concentration index incubated overnight in presence of ciprofloxacin by microdilution checkerboard assay; assay type: functional, Salmonella enterica subsp. enterica serovar Typhi
[50] = system: Escherichia coli; experiment: Bacteriostatic activity against Escherichia coli MTCC 443 assessed as reduction in bacterial growth at 2 times MIC measured upto 24 hrs by absorbance based assay; assay type: functional, organism-based
[51] = system: Staphylococcus aureus; experiment: Bacteriostatic activity against Staphylococcus aureus MTCC 902 assessed as reduction in bacterial growth at 2 times MIC measured upto 24 hrs by absorbance based assay; assay type: functional, organism-based
[52] = system: Enterococcus faecalis; experiment: Antibacterial activity against Enterococcus faecalis MTCC 439 assessed as inhibition of bacterial growth at 200 ug/ml incubated overnight by spectrophotometry relative to control; assay type: functional
[53] = system: Bacillus subtilis; experiment: Antibacterial activity against Bacillus subtilis MTCC 736 assessed as inhibition of bacterial growth at 200 ug/ml incubated overnight by spectrophotometry relative to control; assay type: functional
[54] = system: Pseudomonas aeruginosa; experiment: Antibacterial activity against Pseudomonas aeruginosa MTCC 2453 assessed as inhibition of bacterial growth at 200 ug/ml incubated overnight by spectrophotometry relative to control; assay type: functional

`Fc1ccc(/C=N/CCNc2ccnc3cc(Cl)ccc23)cc1` was tested, and the zone of inhibition at 500 µg/mL [1] was 8 mm, the zone of inhibition at 500 µg/mL [2] was 10 mm and the zone of inhibition at 500 µg/mL [3] was 10 mm. For the same compound, the zone of inhibition at 500 µg/mL [4] was 9 mm, the zone of inhibition at 500 µg/mL [5] was 7 mm and the zone of inhibition at 500 µg/mL [6] was 11 mm. The MIC [7] was 512 µg/mL (≈ 1560 µM), the MIC [8] was 256 µg/mL (≈ 781 µM) and the MIC [9] was 256 µg/mL (≈ 781 µM). For the same compound, the MIC [10] was 256 µg/mL (≈ 781 µM), the MIC [11] was 512 µg/mL (≈ 1560 µM) and the MIC [12] was 128 µg/mL (≈ 390 µM). For the same compound, the MBC [13] was 512 µg/mL (≈ 1560 µM), the MBC [14] was over 512 µg/mL and the MBC [15] was 256 µg/mL (≈ 781 µM). The MBC [16] was over 512 µg/mL, the MBC [17] was 512 µg/mL (≈ 1560 µM) and the MBC [18] was 128 µg/mL (≈ 390 µM). It also gave a Ratio [19] of 1, a Ratio [20] of 1 and a Ratio [21] of 1. For the same compound, the Ratio [22] was 1, the “diameter of the inhibition zone (DIZ)” value [23] was 7 mm and the “diameter of the inhibition zone (DIZ)” value [24] was 9 mm. The “diameter of the inhibition zone (DIZ)” value [25] was 10 mm, the “diameter of the inhibition zone (DIZ)” value [26] was 10 mm and the “diameter of the inhibition zone (DIZ)” value [27] was 7 mm. The “diameter of the inhibition zone (DIZ)” value [28] was 9 mm, the “diameter of the inhibition zone (DIZ)” value [29] was 8 mm and the “diameter of the inhibition zone (DIZ)” value [30] was 8 mm. The “diameter of the inhibition zone (DIZ)” value [31] was 10 mm, the “diameter of the inhibition zone (DIZ)” value [32] was 13 mm and the “diameter of the inhibition zone (DIZ)” value [33] was 7 mm. For the same compound, the “diameter of the inhibition zone (DIZ)” value [34] was 13 mm, the “diameter of the inhibition zone (DIZ)” value [35] was 10 mm and the “diameter of the inhibition zone (DIZ)” value [36] was 9 mm. The “diameter of the inhibition zone (DIZ)” value [37] was 11 mm, the MIC [38] was 64 µg/mL and the MIC [39] was 128 µg/mL. For the same compound, the MIC [40] was 256 µg/mL, the MIC [41] was 32 µg/mL and the MIC [42] was 256 µg/mL. The MIC [43] was 16 µg/mL, the “fractional inhibitory concentration index (FICI)” value [44] was 0.37 and the “fractional inhibitory concentration index (FICI)” value [45] was 1.5. The “fractional inhibitory concentration index (FICI)” value [46] was 2, the “fractional inhibitory concentration index (FICI)” value [47] was 1.12 and the “fractional inhibitory concentration index (FICI)” value [48] was 1.5. For the same compound, the “fractional inhibitory concentration index (FICI)” value [49] was 0.187, the Activity [50] was “Active” and the Activity [51] was “Active”. For the same compound, the inhibition at 200 µg/mL [52] was 100%, the inhibition at 200 µg/mL [53] was 100% and the inhibition at 200 µg/mL [54] was 100%.
